US20250368634A1, “PHENYL AMIDE COMPOUNDS AND METHODS OF USE” (SCHRÖDINGER, INC., priority 2022, published 2025)

molecular target: SOS1-KRas (G12C) (Homo sapiens (Human), UniProt Q07889); experiment: SOS1-KRas (G12C) FRET Assay; format: binding; conditions: not given
Sequence (Q07889 564-1049, stated change not applied): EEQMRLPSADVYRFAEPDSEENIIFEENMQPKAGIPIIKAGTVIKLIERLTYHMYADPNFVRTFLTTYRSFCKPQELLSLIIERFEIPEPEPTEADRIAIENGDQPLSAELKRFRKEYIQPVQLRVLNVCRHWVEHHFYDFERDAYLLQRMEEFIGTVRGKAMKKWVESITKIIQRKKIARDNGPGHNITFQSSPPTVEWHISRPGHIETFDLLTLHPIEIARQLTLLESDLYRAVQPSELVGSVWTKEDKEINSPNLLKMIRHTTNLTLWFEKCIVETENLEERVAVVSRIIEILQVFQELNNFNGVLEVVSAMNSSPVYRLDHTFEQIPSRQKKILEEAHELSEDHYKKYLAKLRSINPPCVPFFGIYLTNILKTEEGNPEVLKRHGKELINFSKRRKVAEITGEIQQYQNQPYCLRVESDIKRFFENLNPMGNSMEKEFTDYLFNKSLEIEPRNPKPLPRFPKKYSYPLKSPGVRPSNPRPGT

First: C[C@@H](NC(=O)c1cc(N2CCOCC2)c(F)cc1NC12CC(N(C)C)(C1)C2)c1cccc(C(F)F)c1F [Example 53, (R)—N-(1-(3-(difluoromethyl)-2-fluorophenyl)ethyl)-2-((3-(dimethylamino)bicyclo[1.1.1]pentan-1-yl)amino)-4-fluoro-5-morpholinobenzamide]
Second: C[C@@H](NC(=O)c1cc(-c2ccc(=O)n(C)c2)c(F)cc1NC1CCN(C)CC1)c1cccc(C(F)F)c1F [Example 62, (R)-N-(1-(3-(difluoromethyl)-2-fluorophenyl)ethyl)-4-fluoro-5-(1-methyl-6-oxo-1,6-dihydropyridin-3-yl)-2-((1-methylpiperidin-4-yl)amino)benzamide]
The IC50 of the first is 7.4-fold higher: 0.0773 µM for the first, 0.0105 µM for the second. The second is the more potent here.

same assay, conditions: inhibition of SOS1:KRAS interaction; 0.5 nM His10-SOS1 (res. 564-1049), 2.5 nM GST-KRAS (res. 1-169, G12C); 2 hrs at RT

Going from C[C@@H](NC(=O)c1cc(N2CCC(F)(F)C2)c(F)cc1N[C@@H]1CN2CCC1CC2)c1cccc(C(F)F)c1F [Example 26, N—((R)-1-(3-(difluoromethyl)-2-fluorophenyl)ethyl)-5-(3,3-difluoropyrrolidin-1-yl)-4-fluoro-2-(((S)-quinuclidin-3-yl)amino)benzamide] to C[C@@H](NC(=O)c1cc(N2CCC(F)(F)C2)c(F)cc1N[C@H]1CN2CCC1CC2)c1cccc(C(F)F)c1F [Example 27, N—((R)-1-(3-(difluoromethyl)-2-fluorophenyl)ethyl)-5-(3,3-difluoropyrrolidin-1-yl)-4-fluoro-2-(((R)-quinuclidin-3-yl)amino)benzamide], the IC50 falls from 0.0888 µM to 0.0225 µM (3.9-fold). The second is the more potent here.

Going from C[C@@H](NC(=O)c1cc(N2CCC2)c(F)cc1N[C@@H]1CN2CCC1CC2)c1cccc(C(F)F)c1F [Example 28, 5-(azetidin-1-yl)-N—((R)-1-(3-(difluoromethyl)-2-fluorophenyl)ethyl)-4-fluoro-2-(((S)-quinuclidin-3-yl)amino)benzamide] to C[C@@H](NC(=O)c1cc(N2CCC2)c(F)cc1N[C@H]1CN2CCC1CC2)c1cccc(C(F)F)c1F [Example 29, 5-(azetidin-1-yl)-N—((R)-1-(3-(difluoromethyl)-2-fluorophenyl)ethyl)-4-fluoro-2-(((R)-quinuclidin-3-yl)amino)benzamide], the IC50 rises from 0.0613 µM to 0.205 µM (3.3-fold).

Going from C[C@@H](NC(=O)c1cc(N2CCCC2)c(F)cc1N[C@@H]1CN2CCC1CC2)c1cccc(C(F)F)c1F [Example 32, N—((R)-1-(3-(difluoromethyl)-2-fluorophenyl)ethyl)-4-fluoro-5-(pyrrolidin-1-yl)-2-(((S)-quinuclidin-3-yl)amino)benzamide] to C[C@@H](NC(=O)c1cc(N2CCCC2)c(F)cc1N[C@H]1CN2CCC1CC2)c1cccc(C(F)F)c1F [Example 33, N—((R)-1-(3-(difluoromethyl)-2-fluorophenyl)ethyl)-4-fluoro-5-(pyrrolidin-1-yl)-2-(((R)-quinuclidin-3-yl)amino)benzamide], the IC50 falls from 0.133 µM to 0.035 µM (3.8-fold).

First: C[C@@H](NC(=O)c1cc(N2CC(F)(F)C[C@@H]2C)c(F)cc1NC1CCN(C)CC1)c1cccc(C(F)F)c1F [Example 37, 5-((S)-4,4-difluoro-2-methylpyrrolidin-1-yl)-N-((R)-1-(3-(difluoromethyl)-2-fluorophenyl)ethyl)-4-fluoro-2-((1-methylpiperidin-4-yl)amino)benzamide]
Second: C[C@@H](NC(=O)c1cc(N2CCOC(F)(F)C2)c(F)cc1NC1CCN(C)CC1)c1cccc(C(F)F)c1F [Example 40, (R)-N-(1-(3-(difluoromethyl)-2-fluorophenyl)ethyl)-5-(2,2-difluoromorpholino)-4-fluoro-2-((1-methylpiperidin-4-yl)amino)benzamide]
The IC50 of the first is 6.3-fold higher: 0.138 µM for the first, 0.0219 µM for the second. The second is the more potent here.

C[C@@H](NC(=O)c1cc(N2CC3COCC(C3)C2)c(F)cc1NC1CCN(C)CC1)c1cccc(C(F)F)c1F [Example 38, 5-(3-oxa-7-azabicyclo[3.3.1]nonan-7-yl)-N-((R)-1-(3-(difluoromethyl)-2-fluorophenyl)ethyl)-4-fluoro-2-((1-methylpiperidin-4-yl)amino)benzamide] and C[C@@H](NC(=O)c1cc(N2CC3CCCC(C2)O3)c(F)cc1NC1CCN(C)CC1)c1cccc(C(F)F)c1F [Example 41, 5-(9-oxa-3-azabicyclo[3.3.1]nonan-3-yl)-N-((R)-1-(3-(difluoromethyl)-2-fluorophenyl)ethyl)-4-fluoro-2-((1-methylpiperidin-4-yl)amino)benzamide] are within 1.5-fold of each other in IC50: 0.0357 µM for the first, 0.0333 µM for the second.

Going from C[C@@H](NC(=O)c1cc(N2C3CCCC2COC3)c(F)cc1NC1CCN(C)CC1)c1cccc(C(F)F)c1F [Example 39, 5-(3-oxa-9-azabicyclo[3.3.1]nonan-9-yl)-N-((R)-1-(3-(difluoromethyl)-2-fluorophenyl)ethyl)-4-fluoro-2-((1-methylpiperidin-4-yl)amino)benzamide] to C[C@@H](NC(=O)c1cc(-c2ccnnc2)c(F)cc1NC1CCN(C)CC1)c1cccc(C(F)F)c1F [Example 65, (R)-N-(1-(3-(difluoromethyl)-2-fluorophenyl)ethyl)-4-fluoro-2-((1-methylpiperidin-4-yl)amino)-5-(pyridazin-4-yl)benzamide], the IC50 falls from 0.111 µM to 0.0069 µM (16-fold). The second is the more potent here.

First: C[C@@H](NC(=O)c1cc(N2CCOCC2)c(F)cc1N[C@@H]1CN2CCC1CC2)c1cccc(C(C)(F)F)c1F [Example 42, N—((R)-1-(3-(1,1-difluoroethyl)-2-fluorophenyl)ethyl)-4-fluoro-5-morpholino-2-(((S)-quinuclidin-3-yl)amino)benzamide]
Second: C[C@@H](NC(=O)c1cc(N2CCOCC2)c(F)cc1N[C@H]1CN2CCC1CC2)c1cccc(C(C)(F)F)c1F [Example 43, N—((R)-1-(3-(1,1-difluoroethyl)-2-fluorophenyl)ethyl)-4-fluoro-5-morpholino-2-(((R)-quinuclidin-3-yl)amino)benzamide]
The IC50 of the first is 3.3-fold higher: 0.0495 µM for the first, 0.0151 µM for the second. The second is the more potent here.

Compared with Cc1c(C#N)cccc1[C@@H](C)NC(=O)c1cc(N2CCOCC2)c(F)cc1N[C@@H]1CN2CCC1CC2 [Example 44, N—((R)-1-(3-cyano-2-methylphenyl)ethyl)-4-fluoro-5-morpholino-2-(((S)-quinuclidin-3-yl)amino)benzamide], Cc1c(C#N)cccc1[C@@H](C)NC(=O)c1cc(N2CCOCC2)c(F)cc1N[C@H]1CN2CCC1CC2 [Example 45, N—((R)-1-(3-cyano-2-methylphenyl)ethyl)-4-fluoro-5-morpholino-2-(((R)-quinuclidin-3-yl)amino)benzamide] is 3-fold lower in IC50: 0.21 µM for the first, 0.0692 µM for the second.

Cc1c(C#N)cccc1[C@@H](C)NC(=O)c1cc(N2CCOCC2)c(F)cc1NC1CCN(C)CC1 [Example 46, (R)—N-(1-(3-cyano-2-methylphenyl)ethyl)-4-fluoro-2-((1-methylpiperidin-4-yl)amino)-5-morpholinobenzamide] and C[C@@H](NC(=O)c1cc(N2CCOCC2)c(F)cc1NC1(C)CN(C)C1)c1cccc(C(F)F)c1F [Example 54, (R)—N-(1-(3-(difluoromethyl)-2-fluorophenyl)ethyl)-2-((1,3-dimethylazetidin-3-yl)amino)-4-fluoro-5-morpholinobenzamide] are within 1.5-fold of each other in IC50: 0.0746 µM for the first, 0.0741 µM for the second.

Compared with C[C@@H](NC(=O)c1cc(N2CCOCC2)c(F)cc1NCCN)c1cccc(C(F)F)c1F [Example 47, (R)-2-((2-aminoethyl)amino)-N-(1-(3-(difluoromethyl)-2-fluorophenyl)ethyl)-4-fluoro-5-morpholinobenzamide], C[C@@H](NC(=O)c1cc(N2CCOCC2)c(F)cc1NCCN(C)C)c1cccc(C(F)F)c1F [Example 48, (R)—N-(1-(3-(difluoromethyl)-2-fluorophenyl)ethyl)-2-((2-(dimethylamino)ethyl)amino)-4-fluoro-5-morpholinobenzamide] is 1.9-fold higher in IC50: 0.0337 µM for the first, 0.0638 µM for the second.

Going from C[C@@H](NC(=O)c1cc(N2CCOCC2)c(F)cc1NC(C)(C)C#N)c1cccc(C(F)F)c1F [Example 51, (R)-2-((2-cyanopropan-2-yl)amino)-N-(1-(3-(difluoromethyl)-2-fluorophenyl)ethyl)-4-fluoro-5-morpholinobenzamide] to C[C@@H](NC(=O)c1cc(N2CCOCC2)c(F)cc1NC(C)(C)CN(C)C)c1cccc(C(F)F)c1F [Example 52, (R)—N-(1-(3-(difluoromethyl)-2-fluorophenyl)ethyl)-2-((1-(dimethylamino)-2-methylpropan-2-yl)amino)-4-fluoro-5-morpholinobenzamide], the IC50 falls from 0.333 µM to 0.0648 µM (5.1-fold). The second is the more potent here.

First: Cc1c([C@@H](C)NC(=O)c2cc(-c3ccncc3)c(F)cc2NC2CCN(C)CC2)cccc1C(F)(F)F [Example 56, (R)-4-fluoro-N-(1-(2-methyl-3-(trifluoromethyl)phenyl)ethyl)-2-((1-methylpiperidin-4-yl)amino)-5-(pyridin-4-yl)benzamide]
Second: Cc1c([C@@H](C)NC(=O)c2cc(-c3cnoc3)c(F)cc2NC2CCN(C)CC2)cccc1C(F)(F)F [Example 61, (R)-4-fluoro-5-(isoxazol-4-yl)-N-(1-(2-methyl-3-(trifluoromethyl)phenyl)ethyl)-2-((1-methylpiperidin-4-yl)amino)benzamide]
The IC50 of the first is 3.8-fold lower: 0.0348 µM for the first, 0.131 µM for the second.

C[C@@H](NC(=O)c1cc(-c2ccncc2)c(F)cc1NC1CCN(C)CC1)c1cccc(C(F)F)c1F [Example 57, (R)—N-(1-(3-(difluoromethyl)-2-fluorophenyl)ethyl)-4-fluoro-2-((1-methylpiperidin-4-yl)amino)-5-(pyridin-4-yl)benzamide] and Cc1cc(-c2cc(C(=O)N[C@H](C)c3cccc(C(F)F)c3F)c(NC3CCN(C)CC3)cc2F)ccn1 [Example 64, (R)-N-(1-(3-(difluoromethyl)-2-fluorophenyl)ethyl)-4-fluoro-2-((1-methylpiperidin-4-yl)amino)-5-(2-methylpyridin-4-yl)benzamide] are within 1.5-fold of each other in IC50: 0.0098 µM for the first, 0.0083 µM for the second.

C[C@@H](NC(=O)c1cc(-c2ccn(C)c(=O)c2)c(F)cc1NC1CCN(C)CC1)c1cccc(C(F)F)c1F [Example 60, (R)—N-(1-(3-(difluoromethyl)-2-fluorophenyl)ethyl)-4-fluoro-5-(1-methyl-2-oxo-1,2-dihydropyridin-4-yl)-2-((1-methylpiperidin-4-yl)amino)benzamide] and C[C@@H](NC(=O)c1cc(-c2ccncc2F)c(F)cc1NC1CCN(C)CC1)c1cccc(C(F)F)c1F [Example 63, (R)-N-(1-(3-(difluoromethyl)-2-fluorophenyl)ethyl)-4-fluoro-5-(3-fluoropyridin-4-yl)-2-((1-methylpiperidin-4-yl)amino)benzamide] are within 1.5-fold of each other in IC50: 0.011 µM for the first, 0.0149 µM for the second.
